Measurements reported in US20040072903A1, “Carboxyalkylether-acat inhibitors combinations” (priority 2002, published 2004).

Experiments:
[1] = system: Chow-Fed Rat; test: Effects of Treatment on Lipid and Lipoprotein Parameters in the Chow-Fed Rat; format: in vivo; design: TG (Triglyceride) / Cholesterol (Total cholesterol) / VLDL (Very low-density cholesterol) / LDL (Low-density cholesterol) / HDL (High-density cholesterol): unit not given here
[2] = system: man; conditions: in man, Helsinki Heart Study; cited from earlier work

SMILES | Cholesterol (Total cholesterol) ([1]; 10 mg/kg) | HDL (High-density cholesterol) ([1]; 10 mg/kg) | HDL/VLDL + LDL (HDL divided by the sum of VLDL and LDL) ([1]; 10 mg/kg) | LDL (Low-density cholesterol) ([1]; 10 mg/kg) | TG (Triglyceride) ([1]; 10 mg/kg) | VLDL (Very low-density cholesterol) ([1]; 10 mg/kg) | Cholesterol (Total cholesterol) ([1]; 30 mg/kg) | HDL (High-density cholesterol) ([1]; 30 mg/kg) | HDL/VLDL + LDL (HDL divided by the sum of VLDL and LDL) ([1]; 30 mg/kg) | LDL (Low-density cholesterol) ([1]; 30 mg/kg) | TG (Triglyceride) ([1]; 30 mg/kg) | VLDL (Very low-density cholesterol) ([1]; 30 mg/kg) | further results
CC(C)(CCCCOCCCCC(C)(C)C(=O)O)C(=O)O [CI-1027] | 89 ± 8.5 | 76 ± 7.1 | 6.8 ± 0.7 | 9.1 ± 1.1 | 60 ± 8.8 | 2.8 ± 0.8 | 119 ± 21 | 100 ± 14.8 | 9.4 ± 2.7 | 17.6 ± 6.1 | 27 ± 2.0 | 0.7 ± 0.2 | Cholesterol (Total cholesterol) ([1]; 3 mg/kg): 40 ± 1.4; HDL (High-density cholesterol) ([1]; 3 mg/kg): 28 ± 1.0; HDL/VLDL + LDL (HDL divided by the sum of VLDL and LDL) ([1]; 3 mg/kg): 2.4 ± 0.1; LDL (Low-density cholesterol) ([1]; 3 mg/kg): 9.0 ± 0.5; TG (Triglyceride) ([1]; 3 mg/kg): 70 ± 2.8; VLDL (Very low-density cholesterol) ([1]; 3 mg/kg): 2.7 ± 0.3
CC(C)c1cc(C(C)C)c(CC(=O)NS(=O)(=O)Oc2c(C(C)C)cccc2C(C)C)c(C(C)C)c1 [Avisimbe] | 36 ± 2.3 | 19.5 ± 1.7 | 1.2 ± 0.1 | 12.0 ± 1.1 | 85 ± 16.8 | 3.9 ± 0.7 | 37 ± 2.9 | 22.2 ± 1.8 | 1.6 ± 0.1 | 12.0 ± 0.8 | 65 ± 12.9 | 2.1 ± 0.6 | –
Cc1ccc(C)c(OCCCC(C)(C)C(=O)O)c1 [gemfibrozil] | – | – | – | – | – | – | – | – | – | – | – | – | HDL-C [2]: increased; LDL-C [2]: decreased; incidence of coronary artery disease [2]: reduced
